{"source": "patent US20240360139A1", "about": "“BLOOD BRAIN BARRIER PENETRATING SELECTIVE INHIBITORS OF ROCK2 PROTEIN KINASES AND USES THEREOF” (GENOSCO Inc., priority 2023, published 2024)", "key": {"[1]": {"target": "T1, Recombinant ROCK1 (amino acids 1-477) (Homo sapiens, UniProt Q13464)", "T1 construct": "Recombinant ROCK1 (amino acids 1-477)", "T1 sequence (Q13464 1-477)": "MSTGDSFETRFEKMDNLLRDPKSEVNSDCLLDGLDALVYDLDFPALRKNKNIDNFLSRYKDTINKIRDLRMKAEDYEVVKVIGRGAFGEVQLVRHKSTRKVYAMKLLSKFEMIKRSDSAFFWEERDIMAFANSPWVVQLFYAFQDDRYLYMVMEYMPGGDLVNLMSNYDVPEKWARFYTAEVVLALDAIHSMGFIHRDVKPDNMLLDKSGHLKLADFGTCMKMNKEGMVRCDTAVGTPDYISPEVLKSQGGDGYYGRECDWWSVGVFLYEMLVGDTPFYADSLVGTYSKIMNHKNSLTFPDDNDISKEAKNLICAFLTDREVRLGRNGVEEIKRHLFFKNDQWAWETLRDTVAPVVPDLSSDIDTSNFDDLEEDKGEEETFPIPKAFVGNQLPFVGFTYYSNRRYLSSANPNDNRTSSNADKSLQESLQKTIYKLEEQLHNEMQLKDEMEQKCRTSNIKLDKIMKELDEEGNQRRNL", "assay": "ROCK inhibition assay, LANCE Ultra TR-FRET (ROCK1)", "format": "biochemical", "conditions": "1 mM of ATP", "experimental": "(§1) Kinase IC50 was determined through an in vitro assay based on LANCE Ultra TR-FRET (Time-Resolved Fluorescence Resonance Energy Transfer) homogeneous technologies method 5 (Perkin Elmer). Recombinant ROCK1 (amino acids 1-477) and ROCK2 (amino acids 5-554) proteins were purchased from Carna Biosciences and SignalChem. Compound activities were measured by Envision and IC50s were calculated. The assays were performed in white LUMITRAC™ 200 96 well half-area microplates from Greiner Bio-One. The kinase reaction buffer consisted of 50 mM HEPES pH 7.5, 1 mM EGTA, 10 mM MgCl2, 2 mM DTT and 0.01% 10 Tween-20. Kinases were incubated with 50 nM (ULight-CREBtide) substrate in the presence of 1 mM (ROCK1) or 1 mM (ROCK2) of ATP. The kinase reaction was carried out for 1 hour before addition of a stopping buffer to a final of 10 mM EDTA and 0.6 nM of LANCE Ultra Europium anti-phospho-CREB (Ser133) antibody (PerkinElmer TRF0200) in LANCE detection buffer. All assay incubations were performed at room temperature, and the microplates were sealed with polyester film during that time. The reaction was incubated for 1 hour, and the signal was read in Envision in TR-FRET mode (excitation at 320 nm and emission at 615/665 nm).\n(§2) As used herein, a way to describe potency of inhibitory activity (nM) is a value of inhibitory activity at 50% (IC50)."}, "[2]": {"target": "T2, Recombinant ROCK2 (amino acids 5-554) (Homo sapiens, UniProt O75116)", "T2 construct": "ROCK2 (amino acids 5-554)", "T2 sequence (O75116 5-554)": "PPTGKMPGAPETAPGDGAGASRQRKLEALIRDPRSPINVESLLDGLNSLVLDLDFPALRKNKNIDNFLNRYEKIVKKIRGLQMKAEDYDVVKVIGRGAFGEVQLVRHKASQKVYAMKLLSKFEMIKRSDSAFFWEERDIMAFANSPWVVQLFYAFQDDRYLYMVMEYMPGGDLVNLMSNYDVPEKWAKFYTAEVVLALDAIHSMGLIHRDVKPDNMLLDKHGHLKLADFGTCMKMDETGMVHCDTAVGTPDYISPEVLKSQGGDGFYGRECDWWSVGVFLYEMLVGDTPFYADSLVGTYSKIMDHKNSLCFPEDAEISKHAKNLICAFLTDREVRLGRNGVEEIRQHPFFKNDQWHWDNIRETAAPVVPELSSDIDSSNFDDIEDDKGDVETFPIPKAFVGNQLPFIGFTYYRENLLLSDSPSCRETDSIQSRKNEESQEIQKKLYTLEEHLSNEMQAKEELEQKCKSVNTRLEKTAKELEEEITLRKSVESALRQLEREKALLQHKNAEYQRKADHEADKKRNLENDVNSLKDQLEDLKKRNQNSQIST", "assay": "ROCK inhibition assay, LANCE Ultra TR-FRET (ROCK2)", "format": "biochemical", "conditions": "1 mM of ATP", "experimental": "as §1, §2"}}, "note": "Structures can show the parent of a compound that is named as a salt.", "data": [{"smiles": "COc1[nH]ncc1-c1cc2c(cn1)c(C(=O)C1COc3ccc(Cl)cc3C1)cn2CCN(C)C", "note": "(centres unmarked) [Compound 1-1, (6-chlorochroman-3-yl)-[1-[2-(dimethylamino)ethyl]-6-(3-methoxy-1H-pyrazol-4-yl)pyrrolo[3,2-c]pyridin-3-yl]methanone]", "values": [{"measurement": "IC50", "setting": "[1]", "value": "> 501", "unit": "nM"}, {"measurement": "IC50", "setting": "[2]", "value": "21 to 200", "unit": "nM"}]}, {"smiles": "COc1[nH]ncc1-c1cc2c(cn1)c(C(=O)C1COc3ccc(Cl)cc3C1)cn2CCN(C)C", "note": "(centres unmarked) [Compound 1-2, (6-chlorochroman-3-yl)(1-(2-(dimethylamino)ethyl)-6-(5-methoxy-1H-pyrazol-4-yl)-1H-pyrrolo[3,2-c]pyridin-3-yl)methanone dihydrochloride]", "values": [{"measurement": "IC50", "setting": "[1]", "value": "> 501", "unit": "nM"}, {"measurement": "IC50", "setting": "[2]", "value": "21 to 200", "unit": "nM"}]}, {"smiles": "COc1[nH]ncc1-c1cc2c(cn1)c(C(=O)C1COc3ccc(Cl)cc3C1)cn2CCN(C)C", "note": "(centres unmarked) [Compound 1-3, (6-chlorochroman-3-yl)(1-(2-(dimethylamino)ethyl)-6-(5-methoxy-1H-pyrazol-4-yl)-1H-pyrrolo[3,2-c]pyridin-3-yl)methanone dimethanesulfonic acid]", "values": [{"measurement": "IC50", "setting": "[1]", "value": "> 501", "unit": "nM"}, {"measurement": "IC50", "setting": "[2]", "value": "21 to 200", "unit": "nM"}]}, {"smiles": "COc1ccc2c(c1)C[C@H](C(=O)c1cn(C[C@@H]3CCN3C)c3cc(-c4cn[nH]c4Cl)ncc13)CO2", "note": "[Compound 1-4]", "values": [{"measurement": "IC50", "setting": "[1]", "value": "> 501", "unit": "nM"}, {"measurement": "IC50", "setting": "[2]", "value": "< 20", "unit": "nM"}]}, {"smiles": "COc1[nH]ncc1-c1ccc2c(C(=O)C3COc4ccc(Cl)cc4C3)cn(CCN(C)C)c2n1", "note": "(centres unmarked) [Compound 1-8]", "values": [{"measurement": "IC50", "setting": "[1]", "value": "> 501", "unit": "nM"}, {"measurement": "IC50", "setting": "[2]", "value": "201 to 500", "unit": "nM"}]}, {"smiles": "CN(C)CCn1cc(C(=O)C2COc3ccc(Cl)cc3C2)c2ccc(-c3c[nH]nc3Cl)nc21", "note": "(centres unmarked) [Compound 1-9]", "values": [{"measurement": "IC50", "setting": "[1]", "value": "201 to 500", "unit": "nM"}, {"measurement": "IC50", "setting": "[2]", "value": "21 to 200", "unit": "nM"}]}, {"smiles": "CN(C)CCn1cc(C(=O)C2COc3ccc(F)cc3C2)c2ccc(-c3c[nH]nc3Cl)nc21", "note": "(centres unmarked) [Compound 1-10]", "values": [{"measurement": "IC50", "setting": "[1]", "value": "> 501", "unit": "nM"}, {"measurement": "IC50", "setting": "[2]", "value": "21 to 200", "unit": "nM"}]}, {"smiles": "CN(C)CCn1cc(C(=O)C2COc3ccc(Cl)cc3C2)c2cnc(-c3c[nH]nc3Cl)cc21", "note": "(centres unmarked) [Compound 1-11]", "values": [{"measurement": "IC50", "setting": "[1]", "value": "> 501", "unit": "nM"}, {"measurement": "IC50", "setting": "[2]", "value": "> 501", "unit": "nM"}]}, {"smiles": "CN(C)CCn1cc(C(=O)C2COc3ccc(F)cc3C2)c2cnc(-c3c[nH]nc3Cl)cc21", "note": "(centres unmarked) [Compound 1-12]", "values": [{"measurement": "IC50", "setting": "[1]", "value": "> 501", "unit": "nM"}, {"measurement": "IC50", "setting": "[2]", "value": "201 to 500", "unit": "nM"}]}, {"smiles": "COc1ccc2c(c1)CC(C(=O)c1cn(CCN(C)C)c3nc(-c4c[nH]nc4Cl)ccc13)CO2", "note": "(centres unmarked) [Compound 1-13]", "values": [{"measurement": "IC50", "setting": "[1]", "value": "> 501", "unit": "nM"}, {"measurement": "IC50", "setting": "[2]", "value": "< 20", "unit": "nM"}]}, {"smiles": "COc1ccc2c(c1)CC(C(=O)c1cn(CCN(C)C)c3cc(-c4c[nH]nc4Cl)ncc13)CO2", "note": "(centres unmarked) [Compound 1-14]", "values": [{"measurement": "IC50", "setting": "[1]", "value": "> 501", "unit": "nM"}, {"measurement": "IC50", "setting": "[2]", "value": "201 to 500", "unit": "nM"}]}, {"smiles": "O=C(c1cn(C2CNC2)c2cc(-c3c[nH]nc3Cl)ncc12)C1COc2ccc(F)cc2C1", "note": "(centres unmarked) [Compound 1-15]", "values": [{"measurement": "IC50", "setting": "[1]", "value": "> 501", "unit": "nM"}, {"measurement": "IC50", "setting": "[2]", "value": "21 to 200", "unit": "nM"}]}, {"smiles": "CN(C)CCn1cc(C(=O)C2COc3ccc(Cl)cc3C2)c2ccc(-c3cn[nH]c3F)nc21", "note": "(centres unmarked) [Compound 1-16]", "values": [{"measurement": "IC50", "setting": "[1]", "value": "> 501", "unit": "nM"}, {"measurement": "IC50", "setting": "[2]", "value": "> 501", "unit": "nM"}]}, {"smiles": "CN(C)CCn1cc(C(=O)C2COc3ccc(Cl)cc3C2)c2ccc(-c3c[nH]nc3Cl)cc21", "note": "(centres unmarked) [Compound 1-17]", "values": [{"measurement": "IC50", "setting": "[1]", "value": "> 501", "unit": "nM"}, {"measurement": "IC50", "setting": "[2]", "value": "21 to 200", "unit": "nM"}]}, {"smiles": "COc1[nH]ncc1-c1ccc2c(C(=O)C3COc4ccc(Cl)cc4C3)cn(C3CNC3)c2c1", "note": "(centres unmarked) [Compound 1-18]", "values": [{"measurement": "IC50", "setting": "[1]", "value": "> 501", "unit": "nM"}, {"measurement": "IC50", "setting": "[2]", "value": "21 to 200", "unit": "nM"}]}, {"smiles": "COc1[nH]ncc1-c1ccc2c(C(=O)C3COc4ccc(Cl)cc4C3)cn(CC3CCCN3C)c2c1", "note": "(centres unmarked) [Compound 1-19]", "values": [{"measurement": "IC50", "setting": "[1]", "value": "> 501", "unit": "nM"}, {"measurement": "IC50", "setting": "[2]", "value": "21 to 200", "unit": "nM"}]}, {"smiles": "CN1CCCC1Cn1cc(C(=O)C2COc3ccc(Cl)cc3C2)c2ccc(-c3cn[nH]c3Cl)cc21", "note": "(centres unmarked) [Compound 1-20]", "values": [{"measurement": "IC50", "setting": "[1]", "value": "> 501", "unit": "nM"}, {"measurement": "IC50", "setting": "[2]", "value": "> 501", "unit": "nM"}]}, {"smiles": "O=C(c1cn(CC2CNC2)c2cc(-c3cn[nH]c3Cl)ccc12)C1COc2ccc(Cl)cc2C1", "note": "(centres unmarked) [Compound 1-21]", "values": [{"measurement": "IC50", "setting": "[1]", "value": "< 20", "unit": "nM"}, {"measurement": "IC50", "setting": "[2]", "value": "< 20", "unit": "nM"}]}, {"smiles": "COc1[nH]ncc1-c1ccc2c(C(=O)C3COc4ccc(Cl)cc4C3)cn(CC3CNC3)c2c1", "note": "(centres unmarked) [Compound 1-22]", "values": [{"measurement": "IC50", "setting": "[1]", "value": "< 20", "unit": "nM"}, {"measurement": "IC50", "setting": "[2]", "value": "< 20", "unit": "nM"}]}, {"smiles": "CN(C)CCn1cc(C(=O)C2COc3ccc(F)cc3C2)c2ccc(-c3cn[nH]c3F)cc21", "note": "(centres unmarked) [Compound 1-23]", "values": [{"measurement": "IC50", "setting": "[1]", "value": "> 501", "unit": "nM"}, {"measurement": "IC50", "setting": "[2]", "value": "21 to 200", "unit": "nM"}]}, {"smiles": "CN(C)CCn1cc(C(=O)C2COc3ccc(Cl)cc3C2)c2ccc(-c3cn[nH]c3F)cc21", "note": "(centres unmarked) [Compound 1-24]", "values": [{"measurement": "IC50", "setting": "[1]", "value": "> 501", "unit": "nM"}, {"measurement": "IC50", "setting": "[2]", "value": "21 to 200", "unit": "nM"}]}, {"smiles": "CN(C)CCn1cc(C(=O)[C@@H]2COc3ccc(Cl)cc3C2)c2ccc(-c3cn[nH]c3F)cc21", "note": "[Compound 1-25]", "values": [{"measurement": "IC50", "setting": "[1]", "value": "201 to 500", "unit": "nM"}, {"measurement": "IC50", "setting": "[2]", "value": "21 to 200", "unit": "nM"}]}, {"smiles": "CN(C)CCn1cc(C(=O)[C@@H]2COc3ccc(Cl)cc3C2)c2ccc(-c3cn[nH]c3F)cc21", "note": "[Compound 1-26]", "values": [{"measurement": "IC50", "setting": "[1]", "value": "201 to 500", "unit": "nM"}, {"measurement": "IC50", "setting": "[2]", "value": "< 20", "unit": "nM"}]}, {"smiles": "CN1CCCC1Cn1cc(C(=O)C2COc3ccc(Cl)cc3C2)c2ccc(-c3cn[nH]c3F)cc21", "note": "(centres unmarked) [Compound 1-27]", "values": [{"measurement": "IC50", "setting": "[1]", "value": "201 to 500", "unit": "nM"}, {"measurement": "IC50", "setting": "[2]", "value": "201 to 500", "unit": "nM"}]}, {"smiles": "COc1[nH]ncc1-c1ccc2c(C(=O)C3COc4ccc(Cl)cc4C3)cn(C[C@H]3CCCN3C)c2c1", "note": "(some centres unmarked) [Compound 1-28]", "values": [{"measurement": "IC50", "setting": "[1]", "value": "> 501", "unit": "nM"}, {"measurement": "IC50", "setting": "[2]", "value": "> 501", "unit": "nM"}]}]}
